Assay results reported in US20230304010A1, “COMPOSITIONS AND METHODS FOR TREATING VIRAL INFECTIONS” (priority 2020, published 2023).
Read-outs that look alike come from different tables or passages of the source. Ends that are not written are not given here.

Legend:
SARS-CoV-2 [1] = test system: SARS-CoV-2
Vero E6 cells = settings: uninfected Vero E6 cells; for Cell Viability (%): 0.5 µM
[2] = Nanoparticle formation of peptides with ADGN-106: mean size and polydispersity (Zetasizer); assay type: physicochemical; settings: 25° C.; for Mean Size (nm): peptide/ADGN-106 complexes; for PI: polydispersity index of peptide/ADGN-106 complexes
Description: We then tested the ability of the different peptides to form nanoparticle organization in the presence of ADGN-106 or ADGN-100 peptide. […] Peptides were complexed with 5 or 10 molar excess of ADGN-106.

Vero-6 cells = assay: Cellular toxicity of siRNA/ADGN-100 complexes on Vero-6 cells, CellTiter-Glo; settings: uninfected Vero-6 cells
[3] = test system: SARS-CoV-2 Nucleocapsid gene; assay type: cell-based
SARS-CoV-2 [4] = assay: siRNA/ADGN-100 complexes on SARS-CoV2 virus infection, Vero E6 cells; assay type: cell-based
[5] = molecular target: ACE2:SARS-CoV-2 Spike interaction (UniProt P0DTC2+Q9BYF1); assay: biochemical; assay type: binding
[6] = molecular target: SARS-CoV-2 Spike: ACE2 interaction (UniProt P0DTC2+Q9BYF1); assay: biochemical; assay type: binding
in vitro = settings: uninfected Vero E6 cells
SARS-CoV-2 ORF 3A gene = assay type: cell-based
[7] = Lung and liver toxicity studies after intratracheal instillation
Description: Single dose of peptides or peptide/siRNA complexes were administrated via intratracheal instillation (200 μg) (Table 20). Saline solution was used as negative control. Samples were collected 12, 24, 48 and 72 hr post administration.
The body weight of the mice were recorded before intratracheal instillation (day 0), at day1, day 2 and before being sacrificed (day 3). The lung, liver, heart, kidney and brain were collected at day 3 and organ index were determined.
Bronchoalveolar lavage (BAL) were performed 2 days after instillation. The percentage of the cells, the total protein and level of LDH in the BAL were analyzed.
AST and ALT levels in the plasma were assayed 2 days after instillation.

SARS-CoV-2 [8] = test system: SARS-CoV-2; remark: listed apart in the source
[9] = siRNA complexed with ADGN-100 at molar ratio 1/20, added to Vero-E6 immediately prior to virus infection, read-out: IC50

ACE2:SARS-CoV-2 Spike interaction, sequence (Q9BYF1 18-740, one chain of several): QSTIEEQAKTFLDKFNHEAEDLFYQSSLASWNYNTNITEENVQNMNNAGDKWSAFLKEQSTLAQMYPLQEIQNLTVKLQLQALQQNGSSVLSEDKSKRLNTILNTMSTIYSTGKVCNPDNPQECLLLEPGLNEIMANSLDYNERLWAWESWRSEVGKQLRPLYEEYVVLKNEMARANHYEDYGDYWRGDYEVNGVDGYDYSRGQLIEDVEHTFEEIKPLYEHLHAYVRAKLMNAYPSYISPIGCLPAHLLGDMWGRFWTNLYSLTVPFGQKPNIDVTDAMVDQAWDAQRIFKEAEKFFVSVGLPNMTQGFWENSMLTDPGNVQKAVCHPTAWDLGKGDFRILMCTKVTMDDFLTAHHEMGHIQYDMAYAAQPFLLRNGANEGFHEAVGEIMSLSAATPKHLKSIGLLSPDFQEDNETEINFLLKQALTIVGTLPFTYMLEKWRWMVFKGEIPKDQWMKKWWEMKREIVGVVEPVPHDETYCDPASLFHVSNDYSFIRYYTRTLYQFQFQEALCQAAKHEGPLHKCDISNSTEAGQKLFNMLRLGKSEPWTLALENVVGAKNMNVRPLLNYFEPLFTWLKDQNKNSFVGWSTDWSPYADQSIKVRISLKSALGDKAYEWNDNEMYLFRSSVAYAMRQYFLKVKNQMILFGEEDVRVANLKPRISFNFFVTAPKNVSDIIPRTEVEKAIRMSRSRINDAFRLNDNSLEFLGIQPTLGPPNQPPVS
SARS-CoV-2 Spike: ACE2 interaction, sequence (Q9BYF1 18-740, one chain of several): as above

Molecule: Ac-G*FQPTNGVK*-Ava-LWRALWRLWRSLWRLLWK-NH2 [Seq21]
- Residual Infection (%) (SARS-CoV-2 [1]): 79%
- Cell Viability (%) (Vero E6 cells): 78%
- Mean Size (nm) [2]: 78.2 ± 7 nm
- PI [2]: 0.3

Molecule: KWRSAGWRWRLWRVRSWSR [ADGN-100, reference compound]
- TD50 (μM) (Vero-6 cells): 368 + 18 μM

Molecule: GCCTCTTCTCGTTCCTCATCA (chemistry not given here) [DIVC-8]
- IC50 [3]: 27.3 nM
- TD50 (μM) (Vero-6 cells): 548 + 25 μM
- IC50 (SARS-CoV-2 [4]; [9]): 117 nM

Molecule: Ac-G*NYNYLYRLFK*-Ava-LWRALWRLWRSLWRLLWK-NH2 [Seq15]
- IC50 ([5]; read-out: ACE2:SARS-CoV-2 Spike IC50): > 10000 nM
- IC50 ([6]; read-out: SARS-CoV-2 Spike:ACE2 IC50): > 1000 nM
- Residual Infection (%) (SARS-CoV-2 [1]): 100%
- Cell Viability (%) (Vero E6 cells): 95%
- Mean Size (nm) [2]: 37.5 ± 5 nm
- PI [2]: 0.23

Molecule: CC(=O)N[C@@H](Cc1ccc(O)cc1)C(=O)N[C@@H](Cc1ccccc1)C(=O)N1CCC[C@H]1C(=O)N[C@@H](CC(C)C)C(=O)N[C@@H](CCC(N)=O)C(=O)N[C@@H](CO)C(=O)N[C@@H](Cc1ccc(O)cc1)C(=O)NCC(=O)N[C@@H](Cc1ccccc1)C(=O)N[C@@H](CCC(N)=O)C(=O)N1CCC[C@H]1C(=O)N[C@H](C(=O)N[C@@H](CC(N)=O)C(=O)NCC(=O)N[C@H](C(=O)NCC(=O)N[C@@H](Cc1ccc(O)cc1)C(=O)N[C@@H](CCC(N)=O)C(=O)NCCCCC(=O)N[C@@H](CC(C)C)C(=O)N[C@@H](Cc1c[nH]c2ccccc12)C(=O)N[C@@H](CCCNC(=N)N)C(=O)N[C@@H](C)C(=O)N[C@@H](CC(C)C)C(=O)N[C@@H](Cc1c[nH]c2ccccc12)C(=O)N[C@@H](CCCNC(=N)N)C(=O)N[C@@H](CC(C)C)C(=O)N[C@@H](Cc1c[nH]c2ccccc12)C(=O)N[C@@H](CCCNC(=N)N)C(=O)N[C@@H](CO)C(=O)N[C@@H](CC(C)C)C(=O)N[C@@H](Cc1c[nH]c2ccccc12)C(=O)N[C@@H](CCCNC(=N)N)C(=O)N[C@@H](CC(C)C)C(=O)N[C@@H](CC(C)C)C(=O)N[C@@H](Cc1c[nH]c2ccccc12)C(=O)N[C@@H](CCCCN)C(N)=O)C(C)C)[C@@H](C)O [Seq19]
- viability at 0.5 µM (in vitro): 87%
- blocked ACE2:SARS-CoV-2 Spike interaction [5]: blocked
- IC50 ([5]; ACE2:SARS-CoV-2 Spike IC50): 349 ± 26 nM
- blocked SARS-CoV-2 Spike: ACE2 interaction [6]: blocked
- IC50 ([6]; SARS-CoV-2 Spike:ACE2 IC50): 90.6 nM
- Residual Infection (%) (SARS-CoV-2 [1]): 90%
- Mean Size (nm) [2]: 37.2 ± 5 nm
- PI [2]: 0.24

Molecule: CAAGTCCTATTTCTGAACATG (chemistry not given here) [DIVC-33]
- IC50 (SARS-CoV-2 ORF 3A gene): 57.2 ± 12 nM

Molecule: Ac-KTFLDKFNHEAEDLFPGPKWSAFLKEQSTLAQMYG [Seq28]
- CC50 (in vitro): 290000 ± 51000 nM
- viability at 0.5 µM (in vitro): 78%
- folds more potent than SBP-1-ADGN-106/ADGN-106 complex [5]: 6 folds
- folds more potent than SBP-1 coupled to ADGN-106 [5]: 6 folds
- folds more potent than SBP-1 peptide/ADGN-106 complex [5]: 40 folds
- folds more potent than free SBP-1 [5]: 15 folds
- folds more potent than SBP-1-ADGN-106/ADGN-106 complex [6]: 4 folds
- folds more potent than SBP-1 coupled to ADGN-106 [6]: 3.5 folds
- folds more potent than SBP-1 peptide/ADGN-106 complex [6]: 35 folds
- folds more potent than free SBP-1 [6]: 7 folds
- Residual Infection (%) (SARS-CoV-2 [1]): 10%
- fold stronger anti-SARS-CoV-2 activity than hydroxychloroquine sulfate (SARS-CoV-2 [1]): 250 fold
- increase of potency by pre-incubation with SARS CoV-2 prior infection (SARS-CoV-2 [1]): 2 factor
- inhibition of viral infection (SARS-CoV-2 [1]): exhibit inhibition of viral infection
- Mean Size (nm) [2]: 34.6 ± 7 nm
- PI [2]: 0.18

Molecule: GAACATGTTACCTTCTTCATC (chemistry not given here) [DIVC-34]
- IC50 (SARS-CoV-2 ORF 3A gene): 12.3 ± 1 nM
- TD50 (μM) (Vero-6 cells): 589 + 17 μM
- IC50 (SARS-CoV-2 [4]; read-out: IC50 against SARS-CoV2 virus infection): ~1000 nM
- IC50 (SARS-CoV-2 [4]; [9]): 1450 nM

Molecule: Ac-N*GVEGFNK*Ava-LWRALWRLWRSLWRLLWK-NH2 [Seq17]
- percentage of the cells in bronchoalveolar lavage ([7]; 2 days after instillation, versus saline): slight increases of macrophages
- lung and liver toxicity associated to treatment ([7]; mouse, in vivo): no lung and liver toxicity
- IC50 (SARS-CoV-2 [8]; read-out: SARS-COV2 IC50, original strain, second Table 19, siRNA complexed at molar ratio 1/20): 31.5 ± 12 nM
- IC50 (SARS-CoV-2 [8]; treatments added to Vero-E6 immediately prior to virus infection, Table 16): 27.5 ± 11 nM
- Residual Infection (%) (SARS-CoV-2 [1]): 20%
- inhibition of viral infection (SARS-CoV-2 [1]): exhibit inhibition of viral infection
- reduction of anti-viral activity by pre-incubation (SARS-CoV-2 [1]): 2 fold
- IC50 (SARS-CoV-2 [1]; read-out: D-IC50): 21.5 ± 12 nM
- IC50 (SARS-CoV-2 [1]; read-out: IC50, SARS-COV2): 31.5 ± 12 nM
- IC50 (SARS-CoV-2 [1]; read-out: P-IC50): 57.2 ± 12 nM
- TD50 (Vero E6 cells): 340 ± 28 µM
- Cell Viability (%) (Vero E6 cells): 85%
- Mean Size (nm) [2]: 57 ± 4 nm
- PI [2]: 0.17

Molecule: GTGTAACTTCTTCAATTGTCA (chemistry not given here) [DIVC-32]
- IC50 (SARS-CoV-2 ORF 3A gene): 95.1 ± 7 nM

Molecule: Ac-S*YGFQPTNGV*-Ava-LWRALWRLWRSLWRLLWK-NH2 [Seq20]
- Residual Infection (%) (SARS-CoV-2 [1]): 65%
- inhibition of viral infection (SARS-CoV-2 [1]): exhibit inhibition of viral infection
- Cell Viability (%) (Vero E6 cells): 91%
- Mean Size (nm) [2]: 68.1 ± 5 nm
- PI [2]: 0.25
